In patent publication US20240366612A1, “COMPOUNDS AND METHODS FOR MODULATING NUCLEIC ACID SPLICING” (REMIX THERAPEUTICS INC., priority 2021, published 2024):
Where a name gives a salt, the structure may show the parent alone.

How the values were obtained:
HTT CJ mRNA = assay: Gene panel canonical junction qPCR assay, HTT; type: cell-based; conditions: Homo sapiens, larger gene panel, read-out: HTT IC50 (decrease in CJ mRNA levels)
Method: Compounds described herein were used to modulate RNA transcript abundance in cells. The expression of a target mRNA was measured by detecting the formation of an exon-exon junction in the canonical transcript (CJ). A compound mediated exon-inclusion event was detected by observing an increase in formation of a new junction with an alternative exon (AJ). Real-time qPCR assays were used to detect these splicing switches and interrogate the potency of various compounds towards different target genes. A high-throughput real time quantitative PCR (RT-qPCR) assay was developed to measure these two isoforms of the mRNA (CJ and AJ) for exemplary genes, such as HTT, SMN2, and MYB, together with a control housekeeping gene, GAPDH or GUSB or PPIA, used for normalization. Briefly, the A673 or K562 cell line was treated with various compounds described herein (e.g., compounds of Formula (I)). After treatment, the levels of the HTT, MYB, or SMN2 mRNA targets were determined from each sample of cell lysate by cDNA synthesis followed by qPCR.
The A673 cell line was cultured in DMEM with 10% FBS. Cells were diluted with full growth media and plated in a 96-well plate (15,000 cells in 100 ul media per well). The plate was incubated at 37° C. with 5% CO2 for 24 hours to allow cells to adhere. An 11-point 3-fold serial dilution of the compounds was made in DMSO then diluted in media in an intermediate plate. Compounds were transferred from the intermediate plate to the cell plate with the top dose at a final concentration of 10 uM in the well. Final DMSO concentration was kept at or below 0.25%. The cell plate was returned to the incubator at 37° C. with 5% CO2 for an additional 24 hours.
The K562 cell line was cultured in IMDM with 10% FBS. For K562, cells were diluted with full growth media and plated in either a 96-well plate (50,000 cells in 50 uL media per well) or a 384-well plate (8,000-40,000 cells in 45 uL media per well). An 11-point 3-fold serial dilution of the compounds were made in DMSO then diluted in media in an intermediate plate. Compound was transferred from the intermediate plate to the cell plate with the top dose at a final concentration of 10 uM in the well. Final DMSO concentration was kept at or below 0.25%. Final volume was 100 uL for 96-well plate and 50 uL for 384-well plate. The cell plate was then placed in an incubator at 37° C. with 5% CO2 for 24 hours.
The data analysis was performed by first determining the ΔCt vs the housekeeper gene. This ΔCt was then normalized against the DMSO control (ΔΔCt) and converted to RQ (relative quantification) using the 2^(−ΔΔCt) equation. The RQ were then converted to a percentage response by arbitrarily setting an assay window of 3.5 and 4.0 ΔCt for HTT-CJ and MYB-CJ respectively and an assay window of 9 and 3 ΔCt for HTT-AJ and MYB-AJ in 96 well format (50,000 K562 cells/well and 15,000 A673 cells per well) and an assay window of 3 and 4 ΔCt for HTT-CJ and MYB-CJ respectively and an assay window of 5 and 3 ΔCt for HTT-AJ and MYB-AJ respectively in 384 well format (8,000 K562 cells/well example). […] The percentage response was then fitted to the 4 parametric logistic equation to evaluate the concentration dependence of compound treatment. The increase in AJ mRNA is reported as AC50 (compound concentration having […] in AJ increase) while the decrease in CJ mRNA levels is reported as IC50 (compound concentration having 50% response in CJ decrease).
Additional studies were carried out for a larger panel of genes using the protocol provided above. The junction between flanking upstream and downstream exons was used to design canonical junction qPCR assays. At least one of the forward primer, reverse primer or the CY5-labeled 5′ nuclease probe (with 3′ quencher such as ZEN/Iowa Black FQ) was designed to overlap with the exon junction to capture the CJ mRNA transcript. […]

[1] = tested on: HiBiT-tagged HTT protein in K562 cells; assay: HiBiT protein abundance assay, HTT; type: cell-based, human; conditions: HiBiT-modified K562 cells, 24 hours, luminescence
Method: Compounds described herein were used to screen for effects on quantitative protein abundance using a HiBit assay system (Promega). Quantitative protein abundance was determined by measuring the protein levels of HiBit-tagged protein targets expressed in cell culture via luminescence using the Nano-Glo HiBiT Lytic Detection System, which uses a split complementation assay format to reconstitute NanoBiT enzyme to generate a luminescent signal. A protein abundance assay was developed such that endogenous protein targets could be modified with the HiBiT peptide tag and their abundance could be assessed after compound treatment. Briefly, K562 cell lines containing a HiBiT-modification were treated with various compounds described herein (e.g., compounds of Formulas (I), (II), or (III)). After treatment for 24 hours, the protein abundance of a specific target was determined by measuring luminescence.
• Promega Nano-Glo HiBiT Lytic Detection System (cat #N3030) • Corning 384-well TC-treated microplates (cat #3570) • Synthego Engineered Cells Knock-In Clones
Cells were maintained in IMDM with 10% FBS. Before the assay, cells were diluted with […] growth media (IMDM+1% FBS media) and were seeded in a 384-well plate at a density of 10000 cells/well (for each cell line listed in Table 5). Each compound was prepared as a 10-point 3-fold serial dilution in DMSO with the top dose at a final concentration of 10 μM in the well. Unmodified K562 cells were added at the previously specified density with DMSO to serve as an assay baseline and positive control (PC) and DMSO only with the respective modified cell lines was added to the negative control (NC) columns. Final DMSO concentration was kept at or below 0.25%. Treated cell plates were placed in an incubator at 37° C. with 5% CO2 for 24 hours. After 24 hours, 25 μL of Complete HiBit Lytic reagent was added to each well at room temperature (e.g. one plate requiring 10 mL Lytic Buffer, 100 μL LgBiT Protein, 200 μL Lytic Substrate), shaken for 5 minutes at 600 RPM, then left to sit for 10 minutes for signal to stabilize before reading on a Spark Cyto plate reader (Tecan) with a 500 ms measurement time.
To determine compound effects on protein abundance of each target in Table 5, the percent response for each respective cell line was calculated at each compound concentration as follows:
For the normalized response at each concentration, a four-parameter logistical regression was fit to the data and the response was interpolated at the 50% value to determine a concentration for protein abundance at 50% (IC50) the untreated control.

Cc1cn2cc(-c3cc4ncn([C@H]5CCNC[C@@H]5F)c(=O)c4s3)cc(F)c2n1 (relative stereo) [Compound 272, trans-6-{8-fluoro-2-methylimidazo[1,2-a]pyridin-6-yl}-3-[3-fluoropiperidin-4-yl]thieno[3,2-d]pyrimidin-4-one] gave an IC50 (HTT CJ mRNA) of 1 to 10 µM and an IC50 [1] of 1 to 10 µM.
Molecule Cc1cn2cc(-c3cc4ncn([C@H]5CCNC[C@H]5F)c(=O)c4s3)cc(F)c2n1 (relative stereo) [Compound 273, cis-6-{8-fluoro-2-methylimidazo[1,2-a]pyridin-6-yl}-3-[3-fluoropiperidin-4-yl]thieno[3,2-d]pyrimidin-4-one] has an IC50 (HTT CJ mRNA) of 0.1 to 1 µM and an IC50 [1] of 1 to 10 µM.
Work on Cc1cn2cc(-c3cc4ncn([C@H]5CCN[C@H](C)C5)c(=O)c4s3)cc(F)c2n1 (relative stereo) [Compound 277, 6-{8-fluoro-2-methylimidazo[1,2-a]pyridin-6-yl}-3-[(trans)-2-methylpiperidin-4-yl]thieno[3,2-d]pyrimidin-4-one] yielded an IC50 (HTT CJ mRNA) of 0.1 to 1 µM and an IC50 [1] of 0.1 to 1 µM.
In the case of Cc1cn2cc(-c3cc4ncn([C@H]5CCN[C@@H](C)C5)c(=O)c4s3)cc(F)c2n1 (relative stereo) [Compound 278, 6-{8-fluoro-2-methylimidazo[1,2-a]pyridin-6-yl}-3-[(cis)-2-methylpiperidin-4-yl]thieno[3,2-d]pyrimidin-4-one hydrochloride], the IC50 (HTT CJ mRNA) is reported as 0.1 to 1 µM and the IC50 [1] is reported as 0.1 to 1 µM.
Molecule Cc1cc(-c2cc(=O)n3cc(N4CCN(C)CC4)sc3n2)cc2cn(C)nc12 [Compound 109, 7-(2,7-dimethyl-2H-indazol-5-yl)-2-(4-methylpiperazin-1-yl)-5H-thiazolo[3,2-a]pyrimidin-5-one] has an IC50 (HTT CJ mRNA) greater than 10 µM and an IC50 [1] greater than 10 µM.
Work on Cc1cc(-c2cc(=O)n3nc(N4CCN(C)CC4)sc3n2)cc2cn(C)nc12 [Compound 157, 7-(2,7-dimethyl-2H-indazol-5-yl)-2-(4-methylpiperazin-1-yl)-5H-[1,3,4]thiadiazolo[3,2-a]pyrimidin-5-one] yielded an IC50 (HTT CJ mRNA) greater than 10 µM and an IC50 [1] greater than 10 µM.
Molecule Cc1cn2cc(-c3cc(=O)n4nc(N5CCN(C)CC5)sc4n3)cc(F)c2n1 [Compound 159, 7-(8-fluoro-2-methylimidazo[1,2-a]pyridin-6-yl)-2-(4-methylpiperazin-1-yl)-5H-[1,3,4]thiadiazolo[3,2-a]pyrimidin-5-one] has an IC50 (HTT CJ mRNA) of 1 to 10 µM and an IC50 [1] of 1 to 10 µM.
Molecule Cc1cc(-c2nn3c(=O)cc(N4CCNCC4)nc3s2)cc2cn(C)nc12 [Compound 206, 2-(2,7-dimethyl-2H-indazol-5-yl)-7-(piperazin-1-yl)-5H-[1,3,4]thiadiazolo[3,2-a]pyrimidin-5-one] has an IC50 (HTT CJ mRNA) of 1 to 10 µM and an IC50 [1] of 1 to 10 µM.
In the case of Cc1cn2cc(-c3cc(=O)n4cc(N5CCNC6(CC6)C5)sc4n3)cc(F)c2n1 [Compound 207, 7-(8-fluoro-2-methylimidazo[1,2-a]pyridin-6-yl)-2-(4,7-diazaspiro[2.5]octan-7-yl)-5H-thiazolo[3,2-a]pyrimidin-5-one], the IC50 (HTT CJ mRNA) is reported as greater than 10 µM and the IC50 [1] is reported as greater than 10 µM.
Cc1cn2cc(-c3cn4c(=O)cc(N5CCNC6(CC6)C5)nc4s3)cc(F)c2n1 [Compound 208, 2-(8-fluoro-2-methylimidazo[1,2-a]pyridin-6-yl)-7-(4,7-diazaspiro[2.5]octan-7-yl)-5H-thiazolo[3,2-a]pyrimidin-5-one] gave an IC50 (HTT CJ mRNA) of 1 to 10 µM and an IC50 [1] of 1 to 10 µM.
Molecule Cc1cn2cc(-c3cc(=O)n4nc(N5CCNC6(CC6)C5)sc4n3)cc(F)c2n1 [Compound 209, 7-(8-fluoro-2-methylimidazo[1,2-a]pyridin-6-yl)-2-(4,7-diazaspiro[2.5]octan-7-yl)-5H-[1,3,4]thiadiazolo[3,2-a]pyrimidin-5-one] has an IC50 (HTT CJ mRNA) of 1 to 10 µM and an IC50 [1] of 1 to 10 µM.
Cc1cc(-c2nn3c(=O)cc(N4CCN(C)CC4)nc3s2)cc2cn(C)nc12 [Compound 210, 2-(2,7-dimethyl-2H-indazol-5-yl)-7-(4-methylpiperazin-1-yl)-5H-[1,3,4]thiadiazolo[3,2-a]pyrimidin-5-one] gave an IC50 (HTT CJ mRNA) of 1 to 10 µM and an IC50 [1] of 1 to 10 µM.
With Cc1cn2nc(-c3cc(=O)n4cc(N5CCNC6(CC6)C5)sc4n3)cc(C)c2n1 [Compound 211, 7-(2,8-dimethylimidazo[1,2-b]pyridazin-6-yl)-2-(4,7-diazaspiro[2.5]octan-7-yl)-5H-thiazolo[3,2-a]pyrimidin-5-one] the IC50 (HTT CJ mRNA) was 1 to 10 µM and the IC50 [1] was 1 to 10 µM.
Cc1cn2nc(-c3cn4c(=O)cc(N5CCNC6(CC6)C5)nc4s3)cc(C)c2n1 [Compound 212, 2-(2,8-dimethylimidazo[1,2-b]pyridazin-6-yl)-7-(4,7-diazaspiro[2.5]octan-7-yl)-5H-thiazolo[3,2-a]pyrimidin-5-one] showed an IC50 (HTT CJ mRNA) of 1 to 10 µM and an IC50 [1] of 1 to 10 µM.
Work on Cc1cn2cc(-c3cn4c(=O)cc(N5CCNCC5)nc4s3)cc(F)c2n1 [Compound 213, 2-(8-fluoro-2-methylimidazo[1,2-a]pyridin-6-yl)-7-(piperazin-1-yl)-5H-thiazolo[3,2-a]pyrimidin-5-one] yielded an IC50 (HTT CJ mRNA) greater than 10 µM and an IC50 [1] greater than 10 µM.
For Cc1cn2cc(-c3nn4c(=O)cc(N5CCNCC5)nc4s3)cc(F)c2n1 [Compound 214, 2-(8-fluoro-2-methylimidazo[1,2-a]pyridin-6-yl)-7-(piperazin-1-yl)-5H-[1,3,4]thiadiazolo[3,2-a]pyrimidin-5-one], the IC50 (HTT CJ mRNA) was 1 to 10 µM and the IC50 [1] was greater than 10 µM.
In the case of Cc1cn2cc(-c3nn4c(=O)cc(N5CCNC6(CC6)C5)nc4s3)cc(F)c2n1 [Compound 216, 2-(8-fluoro-2-methylimidazo[1,2-a]pyridin-6-yl)-7-(4,7-diazaspiro[2.5]octan-7-yl)-5H-[1,3,4]thiadiazolo[3,2-a]pyrimidin-5-one], the IC50 (HTT CJ mRNA) is reported as 1 to 10 µM and the IC50 [1] is reported as 1 to 10 µM.
Molecule Cc1cn2cc(-c3nn4c(=O)cc(N5CCN(C)CC5)nc4s3)cc(F)c2n1 [Compound 217, 2-(8-fluoro-2-methylimidazo[1,2-a]pyridin-6-yl)-7-(4-methylpiperazin-1-yl)-5H-[1,3,4]thiadiazolo[3,2-a]pyrimidin-5-one] has an IC50 (HTT CJ mRNA) of 1 to 10 µM and an IC50 [1] of 1 to 10 µM.
